This note sets out measurements from patent US20110184188A1, “Insecticidal Benzenedicarboxamide Derivative” (priority 2008, published 2011).

Bounds are passed on as bounds.

Holding throughout (type): in vivo
Test [1] deals with Spodoptera litura third instar larvae. The test is described as follows: Test to larva of Spodoptera litura (sweet potato leaf dip). As to conditions: foliar, 168 h; Spodoptera litura third instar larvae, active ingredient concentration 20 ppm, seven days later, 25° C.; read-out: insect mortality. The method, then: Test to Larva of Spodoptera litura
Solvent: dimethylformamide 3 parts by weight Emulsifier: polyoxyethylene alkyl phenyl ether 1 part by weight
In order to prepare preparations of suitable active compounds, 1 part by weight of each of the active compounds was blended with the above amount of the solvent containing the above amount of the emulsifier, and the resulting mixture was diluted to a prescribed concentration with water.
Leaves of sweet potato were immersed in the tested liquid medication of a prescribed concentration diluted with water. After air drying of the liquid medication, the leaves were put into a petri dish of a diameter of 9 cm, and 10 Spodoptera litura third instar larvae were released in the petri dish, and the petri dish was placed in a constant temperature room of 25° C. Two days later and four days later, leaves of sweet potato were added. Seven days later, the number of dead insects was examined, and insect mortality was calculated.
In the present test, results of 2 petri dishes for each compound were averaged.

In a further test the test system is Lucilia cuprina. The test is described as follows: Test to Lucilia cuprina (larvae on horse minced meat). The following applies: effective ingredient concentration 100 ppm, read-out: insecticide activity (mortality). How it is done:
(§1) Solvent: dimethylsulfoxide
(§2) In order to prepare preparations of suitable active compounds, 10 mg of each of the active compounds was dissolved into 0.5 ml of the above solvent, and the resulting mixture was diluted to a prescribed concentration with water.
About 20 to 30 larvae of Lucilia cuprina were put into the test tube in which 1 cm^3 of horse minced meat and 0.5 ml of the aqueous solution of the compound prepared in the above were put. After a fixed time passed, the mortality of the Lucilia cuprina was obtained. 100% mortality means that all the individuals were dead, and 0% mortality means that all the individuals were alive.

For another test, the system named is Musca domestica. Nature of the test: Test to Musca domestica (adults, sugar sponge). The following applies: effective ingredient concentration 100 ppm, read-out: insecticide activity (mortality). How it is done:
as §1, §2
As a preparative stage of the test, a fixed size of sponge was soaked in a mixture of sugar and the compound aqueous solution prepared in the above, and was placed in a test container. Ten adults of Musca domestica were put into the container, and the container was closed with a cap having ventilation holes. After a fixed time passed, a mortality rate of Musca domestica was acquired. 100% mortality means that all the individuals were dead, and 0% mortality means that all the individuals were alive.

For `Cc1cc(Cn2cc(C(F)(F)C(F)(F)F)c(C(F)(F)C(F)(F)F)n2)ccc1NC(=O)c1cccc(Br)c1C(=O)N[C@@H](C)C[S+](C)[O-]` (stereo partly drawn) [13-137, N^1-(4-{[3,4-bis(pentafluoroethyl)-1H-pyrazol-1-yl]methyl}-2-methylphenyl)-3-bromo-N^2-[(1S)-1-methyl-2-(methylsulfinyl)ethyl]-1,2-benzenedicarboxamide], the mortality (usually the share of the test organisms that died) at 20 ppm in test [1] was 100%. For the same compound, the mortality at 100 ppm with Lucilia cuprina is at least 80%; in the test on Musca domestica, at least 70%.
For `CSC[C@H](C)NC(=O)c1c(Br)cccc1C(=O)Nc1ccc(Cn2cc(C(F)(F)C(F)(F)F)c(C(F)(F)C(F)(F)F)n2)cc1C` [13-132, N^1-(4-{[3,4-bis(pentafluoroethyl)-1H-pyrazol-1-yl]methyl}-2-methylphenyl)-3-bromo-N^2-[(1S)-1-methyl-2-(methylthio)ethyl]-1,2-benzenedicarboxamide], in that order: 100%, at least 80% and at least 70%.
